These results are taken from US8026218B2, “Bifunctional analgesic compounds for opioid receptor agonists and neurokinin-1 receptor antagonists” (The University of Arizona, priority 2006, dated 2011).

For series [1], the target named is T1, human δ opioid receptors (hDOR) (Homo sapiens, UniProt P41143).
T1 construct: expressed in transfected cells; host or cells: HN9.10 neuroblastoma cell line, pCDNA3, neomycin-selected clones
Kind of series: [35S]GTP-γ-S binding assay, hDOR. In kind it is biochemical. In general terms: Binding of GTPγS marks nucleotide exchange on a G protein.

In series [2] the target is T2, rat μ opioid receptors (rMOR) (Rattus norvegicus, UniProt P33535).
T2 construct: expressed in transfected cells; host or cells: HN9.10 neuroblastoma cell line, pCDNA3, neomycin-selected clones
Kind of series: biochemical. In kind it is biochemical.

In series [3] the target is T3, δ opioid receptors (MVD) (Mus musculus, UniProt P32300).
T3 construct: from tissue; host or cells: mouse (ICR) isolated vas deferens
Kind of series: Mouse isolated vas deferens (MVD) assay, opioid agonist.

Series [4] concerns the target T4, rat NK1 (rNK1) receptor (Rattus norvegicus, UniProt P14600).
T4 construct: expressed in transfected cells; host or cells: CHO (rNK-1/CHO cell line from Dr. James Krause)
In words: Radioligand competition binding, [3H]substance P, rNK1/CHO membranes. The settings on record: for IC50: membranes from transfected CHO cells.

For series [5], the target named is T5, Substance P receptors (guinea pig NK1) (Cavia porcellus, UniProt P30547).
T5 construct: from tissue; host or cells: guinea pig (Hartley) ileum LMMP, 1 μM naloxone present
In words: Guinea pig isolated ileum (GPI) assay with substance P stimulation in presence of 1 μM naloxone. The settings on record: for Kb: Substance P antagonist, GPI, in the presence of 1 μM naloxone.

Series [6] concerns the target T1, human δ opioid receptors (hDOR). Kind of series: Radioligand competition binding, [3H]DPDPE, hDOR membranes. (In general: In a radioligand displacement assay an active substance lowers the binding of a labelled ligand.)
The nature of series [7]: Brain distribution, in situ perfusion model. The conditions noted are these: FIG. 20. Format: in vivo.
The target in series [8] is T2, rat μ opioid receptors (rMOR). In words: Radioligand competition binding, [3H]DAMGO, rMOR membranes.
For series [9], the target named is T6, human NK1 receptor (hNK1) (Homo sapiens, UniProt P25103).
T6 construct: expressed in transfected cells
Kind of series: Radioligand competition binding, [3H]-Substance P, hNK1.

For series [10], the system named is μ opioid receptors (GPI). Kind of series: Guinea pig isolated ileum (GPI) assay, opioid agonist.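 Also: inhibition of electrically evoked contractions (0.1 Hz, 0.4 msec, supramaximal voltage) in organ baths at 37 °C, contraction height 3 min after each cumulative dose versus the 1 min before dosing.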
The nature of series [11]: FIG. 47. The method, then: Table printed on a drawing sheet, FIG. 47
The patent's description of the figure: FIG. 47. Concentration of cyclic compounds in rat plasma after incubation at 37° C.

Series [12] in a line: Octanol/saline distribution (logD7.4). Format: physicochemical. The conditions noted are these: 0.05 N HEPES buffer in 0.1 N NaCl. As to the method: HEPES buffer (0.05 M HEPES buffer in 0.1 M NaCl, pH 7.4, 500 μL) was added to 2 mg of compound and mixed with 500 μL of 1-octanol. The sample was shaken at r.t. for 12 h to allow equilibrating. The sample was centrifuged at 6500 rpm in a VanGuard V6500 (GlaxoSmithKline, Research Triangle Park, N.C.) for 15 min. The layers were separated and each layer was centrifuged once again. The compound concentrations of obtained layers were analyzed by HPLC (30-70% of acetonitrile containing 0.1% TFA within 20 min and up to 95% within additional 5 min, 1 mL/min, 230 nm, Vydac 218TP104 C-18 column). The logarithm of 1-octanol/saline distribution (logD7.4) was calculated as the ratio of compound concentration in the 1-octanol and saline phases.
Octanol/saline distribution (logD7.4) (Yamamoto, 2007, J. Med. Chem., submitted). HEPES buffer (0.05 M HEPES buffer in 0.1 M NaCl, pH 7.4, 500 μL) was added to 2 mg of compound and mixed with 500 μL of 1-octanol. The sample was shaken at r.t. for 12 h to allow equilibrating. The sample was centrifuged at 6500 rpm in a VanGuard V6500 (GlaxoSmithKline, Research Triangle Park, N.C.) for 15 min. The layers were separated and each layer was centrifuged once again. The compound concentrations in the obtained layers were analyzed by HPLC (30-70% of acetonitrile containing 0.1% TFA within 20 min and up to 95% within additional 5 min, 1 mL/min, 230 nm, Vydac 218TP104 C-18 column). The logarithm of 1-octanol/saline distribution (logD7.4) was calculated as the ratio of compound concentration in the 1-octanol and saline phases.

Series [13] deals with MOR (Homo sapiens, UniProt P35372). The settings on record: previous studies; read-out: Affinity (Ki in nM), MOR; cited from earlier work.
In series [14] the target is DOR (Homo sapiens, UniProt P41143). The conditions noted are these: previous studies; read-out: Affinity (Ki in nM), DOR; cited from earlier work.
For series [15], the target named is rNK1 (Rattus norvegicus, UniProt P14600). The conditions noted are these: previous studies; read-out: Affinity (Ki in nM), rNK1; cited from earlier work.
The mark [16] stands for this setting: membranes from transfected HN9.10 cells.
The mark [17] stands for this setting: Table 39, read-out: GPI/LMMP opioid(mu) agonist (IC50; nM).
[18] abbreviates: electrically stimulated isolated tissue, read-out: GPI (μ), IC50.

Like-named read-outs stand apart in the source and are kept apart here.

T3 sequence (P32300 whole entry): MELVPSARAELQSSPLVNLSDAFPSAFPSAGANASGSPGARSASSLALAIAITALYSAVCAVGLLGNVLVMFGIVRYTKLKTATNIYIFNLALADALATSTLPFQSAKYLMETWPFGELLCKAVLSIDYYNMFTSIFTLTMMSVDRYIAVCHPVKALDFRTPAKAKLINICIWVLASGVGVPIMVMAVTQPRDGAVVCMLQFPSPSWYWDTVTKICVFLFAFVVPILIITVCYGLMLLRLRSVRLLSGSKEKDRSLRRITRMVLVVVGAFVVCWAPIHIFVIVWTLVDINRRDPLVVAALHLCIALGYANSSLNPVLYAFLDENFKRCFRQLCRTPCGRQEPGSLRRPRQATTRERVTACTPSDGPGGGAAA
T4 sequence (P14600 whole entry): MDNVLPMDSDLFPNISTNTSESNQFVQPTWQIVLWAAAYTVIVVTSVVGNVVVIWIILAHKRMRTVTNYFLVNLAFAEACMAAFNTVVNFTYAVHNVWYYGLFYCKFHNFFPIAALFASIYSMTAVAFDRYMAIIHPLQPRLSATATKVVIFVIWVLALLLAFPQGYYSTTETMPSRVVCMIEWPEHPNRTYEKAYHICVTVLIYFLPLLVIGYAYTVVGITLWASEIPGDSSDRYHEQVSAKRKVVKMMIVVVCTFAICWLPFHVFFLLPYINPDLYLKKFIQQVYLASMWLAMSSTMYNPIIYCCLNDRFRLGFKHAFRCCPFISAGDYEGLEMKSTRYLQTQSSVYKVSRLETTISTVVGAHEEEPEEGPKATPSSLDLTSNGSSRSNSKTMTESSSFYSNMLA
T2 sequence (P33535 whole entry): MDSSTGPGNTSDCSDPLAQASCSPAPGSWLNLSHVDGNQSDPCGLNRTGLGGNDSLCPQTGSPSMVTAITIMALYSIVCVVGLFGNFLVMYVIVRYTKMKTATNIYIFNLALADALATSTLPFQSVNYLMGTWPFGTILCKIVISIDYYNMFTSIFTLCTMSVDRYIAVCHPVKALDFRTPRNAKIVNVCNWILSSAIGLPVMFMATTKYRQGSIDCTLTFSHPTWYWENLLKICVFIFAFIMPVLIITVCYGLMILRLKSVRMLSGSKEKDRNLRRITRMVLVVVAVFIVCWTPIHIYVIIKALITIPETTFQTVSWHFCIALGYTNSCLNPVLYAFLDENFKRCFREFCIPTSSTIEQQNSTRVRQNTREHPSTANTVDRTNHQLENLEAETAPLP
T6 sequence (P25103 whole entry): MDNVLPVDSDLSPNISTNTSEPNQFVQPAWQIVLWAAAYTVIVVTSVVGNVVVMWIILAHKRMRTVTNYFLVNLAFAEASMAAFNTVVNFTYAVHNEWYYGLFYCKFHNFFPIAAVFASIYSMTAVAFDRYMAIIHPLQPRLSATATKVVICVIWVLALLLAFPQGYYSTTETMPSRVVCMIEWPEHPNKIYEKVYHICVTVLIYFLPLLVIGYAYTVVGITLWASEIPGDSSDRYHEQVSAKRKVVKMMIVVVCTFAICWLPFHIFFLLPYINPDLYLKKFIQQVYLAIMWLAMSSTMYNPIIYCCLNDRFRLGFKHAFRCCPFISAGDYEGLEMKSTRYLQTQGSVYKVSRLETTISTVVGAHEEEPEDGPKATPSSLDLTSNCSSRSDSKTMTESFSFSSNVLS
T5 sequence (P30547 whole entry): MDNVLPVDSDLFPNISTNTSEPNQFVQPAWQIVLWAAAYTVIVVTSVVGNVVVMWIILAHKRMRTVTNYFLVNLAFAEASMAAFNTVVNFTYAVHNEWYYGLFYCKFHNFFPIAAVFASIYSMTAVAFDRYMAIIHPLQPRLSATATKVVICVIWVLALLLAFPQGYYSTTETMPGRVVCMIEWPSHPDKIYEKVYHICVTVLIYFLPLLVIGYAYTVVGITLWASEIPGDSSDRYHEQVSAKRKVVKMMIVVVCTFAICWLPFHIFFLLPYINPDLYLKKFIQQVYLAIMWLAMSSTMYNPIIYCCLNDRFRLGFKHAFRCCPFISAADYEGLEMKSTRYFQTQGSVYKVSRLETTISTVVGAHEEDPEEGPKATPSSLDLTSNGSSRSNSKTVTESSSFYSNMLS
T1 sequence (P41143 whole entry): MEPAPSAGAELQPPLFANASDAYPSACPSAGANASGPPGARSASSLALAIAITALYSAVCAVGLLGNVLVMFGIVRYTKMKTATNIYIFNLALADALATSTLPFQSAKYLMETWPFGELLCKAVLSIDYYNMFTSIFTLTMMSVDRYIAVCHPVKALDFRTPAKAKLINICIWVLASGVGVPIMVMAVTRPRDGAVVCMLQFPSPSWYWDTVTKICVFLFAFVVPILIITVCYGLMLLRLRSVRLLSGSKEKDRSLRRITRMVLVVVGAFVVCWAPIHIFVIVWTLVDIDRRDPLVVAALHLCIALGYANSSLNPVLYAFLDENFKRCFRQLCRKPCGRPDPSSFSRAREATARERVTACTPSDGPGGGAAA
Chain of rNK1 (P14600 whole entry): as the sequence (P14600 whole entry) above
Chain of MOR (P35372 whole entry): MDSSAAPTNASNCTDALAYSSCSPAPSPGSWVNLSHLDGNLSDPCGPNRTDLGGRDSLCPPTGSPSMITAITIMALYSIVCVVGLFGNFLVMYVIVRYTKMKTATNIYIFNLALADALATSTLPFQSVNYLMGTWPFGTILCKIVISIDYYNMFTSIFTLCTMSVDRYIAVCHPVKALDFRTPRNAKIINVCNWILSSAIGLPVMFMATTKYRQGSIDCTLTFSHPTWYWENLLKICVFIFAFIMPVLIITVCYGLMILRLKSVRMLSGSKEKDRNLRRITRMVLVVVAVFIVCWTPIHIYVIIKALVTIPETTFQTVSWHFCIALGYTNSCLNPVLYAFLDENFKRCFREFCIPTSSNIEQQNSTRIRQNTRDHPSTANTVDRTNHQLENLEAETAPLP
Chain of DOR (P41143 whole entry): as the sequence (P41143 whole entry) above

Turning to `CC(C)C[C@H](NC(=O)[C@@H]1CCCN1C(=O)[C@H](CC(C)C)NC(=O)[C@H](Cc1ccccc1)NC(=O)CNC(=O)[C@@H](C)NC(=O)[C@@H](N)Cc1ccc(O)cc1)C(=O)N[C@@H](Cc1c[nH]c2ccccc12)C(=O)OCc1cc(C(F)(F)F)cc(C(F)(F)F)c1` [TY004, H-Tyr-D-Ala-Gly-Phe-Leu-Pro-Leu-Trp-O-3,5-Bzl(CF3)2], the “Ki(μ)/Ki(δ)” value in series [1] is recorded as 3.4; in [6] (binding, rMOR vs hDOR) it was 4.7. Besides, in series [1], the “LogEC50, hDOR, [35S]GTP-γ-S binding” value was −8.09 ± 0.18. The “δ selectivity in [35S]GTP-γ-S binding assays” value in series [1] is listed as 3.4 fold. The EC50 stood at 9.6 nM in series [1] (Table 27, read-out: GTP binding hDOR EC50); 9.6 nM in [1] (Table 39, read-out: GTP binding hDOR EC50); 9.6 nM in series [1] (read-out: EC50, hDOR, [35S]GTP-γ-S binding); 39.8 nM in series [2] (GTP binding rMOR EC50); 33 nM in series [2] (read-out: EC50, rMOR, [35S]GTP-γ-S binding). For the same compound, the Emax in [1] (Table 27, read-out: GTP binding hDOR Emax (%)) amounted to 42.5%; in [1] (Table 39, read-out: GTP binding hDOR Emax) it was 42.5%; in [1] (net total bound/basal binding × 100, read-out: Emax, hDOR, [35S]GTP-γ-S binding), 44%; in series [2] (read-out: Emax, rMOR, [35S]GTP-γ-S binding) it was 46%; in series [2] (read-out: GTP binding rMOR Emax) it was 44.5%; in series [2] (read-out: GTP binding rMOR Emax (%)) it was 44.5%. For the same compound, the “LogEC50, rMOR, [35S]GTP-γ-S binding” value in [2] was −7.48 ± 0.16. The IC50 is 101 nM in series [3]; 101 ± 25 nM in series [3] (electrically stimulated isolated tissue, read-out: MVD (δ), IC50); 20.9 nM in series [4] (IC50, rNK1, Substance P radioligand); 20 nM in series [4] (LogIC50, rNK1, Substance P radioligand); 19.4 nM in [5]; 341 nM in series [10] (Table 28, read-out: GPI/LMMP Opioid(m) Agonist (IC50; nM)). In addition, the IC50 came out at 341 nM in series [10] (setting [17]) and 341 ± 71 nM in [10] (setting [18]). The “δ selectivity in MVD and GPI assays” value in series [3] is on record as 3.4 fold. For the same compound, the “IC50(MVD)/IC50(GPI)” value in [3] (Table 4) was determined as 3.4. Also, the Kb in [5] (Ke) is 19.4 ± 5 nM. Further, in series [5] (Table 39, concentration not given), the “GPI/LMMP SP Agonist (IC50; nM)” value is “none”. Moreover, the activation at 1 µM in [5] (read-out: Substance P GPI agonist (A50), at 1 μM, contraction relative to initial muscle contraction with KCl) worked out at 0%. The inhibition constant (Ki) in series [6] was found to be 23.3 nM; in series [6] (Table 27, read-out: Affinity hDOR (Ki; nM)), 5 nM; in series [6] (Table 39, read-out: Affinity hDOR (Ki; nM)), 5 nM; in series [6] (read-out: Ki, hDOR, [3H]DPDPE) it was 5 nM; in series [8] it was 23.3 nM; in series [9] it was 0.016 nM. Besides, the “δ selectivity over μ in binding assays” value in series [6] (Ki(μ)/Ki(δ)) is on record as 4.7 fold. Moreover, in series [6] (setting [16]), the “LogIC50, hDOR, [3H]DPDPE” value was −7.97 ± 0.07. Besides, the “blood brain barrier penetration” value in series [7] was “penetrate blood brain barrier”. In addition, the “LogIC50, rMOR, [3H]DAMGO” value in series [8] (setting [16]) is listed as −7.30 ± 0.07.

For `CC(C)C[C@H](NC(=O)[C@@H]1CCCN1C(=O)[C@H]1NC(=O)[C@H](Cc2ccccc2)NC(=O)CNC(=O)[C@H](NC(=O)[C@@H](N)Cc2ccc(O)cc2)C(C)(C)SSC1(C)C)C(=O)N[C@@H](Cc1c[nH]c2ccccc12)C(=O)NCc1cc(C(F)(F)F)cc(C(F)(F)F)c1` [TY046], the Emax in [1] (read-out: GTP binding hDOR Emax) and in series [1] (read-out: GTP binding hDOR Emax (%)) was 15% throughout. The compound also registered a T1/2 in series [11] of 8.0 h. Besides, the results for the Ki in series [8] and in series [9] were 2330 nM and 0.0053 nM, respectively.

Turning to `CSCC[C@H](NC(=O)[C@H](Cc1ccccc1)NC(=O)CNC(=O)[C@@H](C)NC(=O)[C@@H](N)Cc1ccc(O)cc1)C(=O)N1CCC[C@H]1C(=O)N[C@@H](CC(C)C)C(=O)N[C@@H](Cc1c[nH]c2ccccc12)C(=O)NCc1ccccc1` [TY025, H-Tyr-D-Ala-Gly-Phe-Met-Pro-Leu-Trp-NH-Bzl], the “LogEC50, hDOR” value in [1] (Table 14, logarithm of EC50 (negative), HN9.10 cell) is given as −8.6 ± 0.13. In addition, the Ki in series [4] (Table 39, read-out: Affinity rNK1 (Ki; nM)) is 696 nM. The same compound had a logD7.4 in series [12] of 3.6. The Kb in [5] (Ke (nM), Table 16) amounted to 9.9 ± 2.8 nM. For the same compound, the “blood brain barrier penetration” value in series [7] was “penetrate blood brain barrier”. Besides, the “species difference between affinities at rNK1 and hNK1” value in series [9] (Ki rNK1 vs Ki hNK1) is 220 fold. The IC50 in [10] (Table 30, read-out: GPI/LMMP Opioid(m) Agonist (IC50; nM)) is 61.1 nM; in series [10] (setting [17]) it was 61.1 nM; in series [10] (setting [18]), 61 nM.

Regarding HTyrDAlaDTrpPheDTrpLeuLeuNH2 [JSOH11], the Ki is 164 nM in [13], 16.5 nM in series [14] and 7320 nM in [15].

Take HTyrDAlaDPhePheDTrpLeuMetNH2 [JSOH9]: the Ki in series [13] is 606 nM; in series [14], 0.72 nM; in [15] it was 2940 nM.

The EC50 is the concentration needed to bring the measured effect to its halfway point. In general, Emax refers to the greatest response seen or fitted, relative to the assay's reference. Usually Kb stands for the equilibrium dissociation constant of an antagonist, usually derived from a functional assay. Usually Ki stands for a measure of affinity in units of concentration, obtained from inhibition or displacement.
